Assay results from the kinase profiling compilation of Christmann-Franck et al. (2016).

What was measured:
Test in all cases: radiometric filter-binding kinase assay, Kinase HotSpot
Conditions in all cases: compound 0.5 µM; ATP 10 µM
TYRO3 (human) = TYRO3 (human) (UniProt Q06418)
MET (human) = MET (human) (UniProt P08581)
RPS6KA4 KD2 (human) = RPS6KA4 KD2 (human) (UniProt O75676)
ROCK1 (human) = ROCK1 (human) (UniProt Q13464)
ABL1 (human) = ABL1 (human) (UniProt P00519)
CLK1 (human) = CLK1 (human) (UniProt P49759)
CSNK1G2 (human) = CSNK1G2 (human) (UniProt P78368)
RIPK2 (human) = RIPK2 (human) (UniProt O43353)
TTK (human) = TTK (human) (UniProt P33981)
CDK2 CCNE1 (human) = CDK2 CCNE1 (human) (UniProt P24941+P24864)
CDK2 CCNA2 (human) = CDK2 CCNA2 (human) (UniProt P24941+P20248)
FYN (human) = FYN (human) (UniProt P06241)
PTK2 (human) = PTK2 (human) (UniProt Q05397)
CAMK2B (human) = CAMK2B (human) (UniProt Q13554)
FES (human) = FES (human) (UniProt P07332)
ROS1 (human) = ROS1 (human) (UniProt P08922)
STK39 (human) = STK39 (human) (UniProt Q9UEW8)
MAPK10 (human) = MAPK10 (human) (UniProt P53779)
EPHB3 (human) = EPHB3 (human) (UniProt P54753)
TSSK1B (human) = TSSK1B (human) (UniProt Q9BXA7)
ULK3 (human) = ULK3 (human) (UniProt Q6PHR2)
BLK (human) = BLK (human) (UniProt P51451)
IGF1R (human) = IGF1R (human) (UniProt P08069)
NEK2 (human) = NEK2 (human) (UniProt P51955)
MAPKAPK3 (human) = MAPKAPK3 (human) (UniProt Q16644)
MINK1 (human) = MINK1 (human) (UniProt Q8N4C8)
TLK2 (human) = TLK2 (human) (UniProt Q86UE8)
RPS6KA2 KD1 KD2 (human) = RPS6KA2 KD1 KD2 (human) (UniProt Q15349)
SRPK3 (human) = SRPK3 (human) (UniProt Q9UPE1)
BRSK2 (human) = BRSK2 (human) (UniProt Q8IWQ3)
PRKCB2 (human) = PRKCB2 (human) (UniProt P05771)
MAPK9 (human) = MAPK9 (human) (UniProt P45984)
TBK1 (human) = TBK1 (human) (UniProt Q9UHD2)
PRKACG (human) = PRKACG (human) (UniProt P22612)
LRRK2 (human) = LRRK2 (human) (UniProt Q5S007)
MAPK13 (human) = MAPK13 (human) (UniProt O15264)
DCLK2 (human) = DCLK2 (human) (UniProt Q8N568)
STK38 (human) = STK38 (human) (UniProt Q15208)
AURKA (human) = AURKA (human) (UniProt O14965)
STK10 (human) = STK10 (human) (UniProt O94804)
NTRK1 (human) = NTRK1 (human) (UniProt P04629)
DAPK3 (human) = DAPK3 (human) (UniProt O43293)

Chain of MAPK9 (human) (P45984 whole entry, looked up): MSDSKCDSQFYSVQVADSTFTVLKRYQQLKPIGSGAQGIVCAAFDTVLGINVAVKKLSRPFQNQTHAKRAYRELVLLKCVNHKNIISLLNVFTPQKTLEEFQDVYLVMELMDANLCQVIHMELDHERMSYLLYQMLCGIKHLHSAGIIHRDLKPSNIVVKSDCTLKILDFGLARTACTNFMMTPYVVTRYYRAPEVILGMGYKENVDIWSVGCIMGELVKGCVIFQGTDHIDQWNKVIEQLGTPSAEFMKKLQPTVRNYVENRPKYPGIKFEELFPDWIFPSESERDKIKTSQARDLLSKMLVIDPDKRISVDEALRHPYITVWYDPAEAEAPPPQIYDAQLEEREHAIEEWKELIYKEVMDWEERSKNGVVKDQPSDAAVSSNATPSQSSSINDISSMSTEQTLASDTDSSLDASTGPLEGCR
Chain of ABL1 (human) (P00519 whole entry, looked up): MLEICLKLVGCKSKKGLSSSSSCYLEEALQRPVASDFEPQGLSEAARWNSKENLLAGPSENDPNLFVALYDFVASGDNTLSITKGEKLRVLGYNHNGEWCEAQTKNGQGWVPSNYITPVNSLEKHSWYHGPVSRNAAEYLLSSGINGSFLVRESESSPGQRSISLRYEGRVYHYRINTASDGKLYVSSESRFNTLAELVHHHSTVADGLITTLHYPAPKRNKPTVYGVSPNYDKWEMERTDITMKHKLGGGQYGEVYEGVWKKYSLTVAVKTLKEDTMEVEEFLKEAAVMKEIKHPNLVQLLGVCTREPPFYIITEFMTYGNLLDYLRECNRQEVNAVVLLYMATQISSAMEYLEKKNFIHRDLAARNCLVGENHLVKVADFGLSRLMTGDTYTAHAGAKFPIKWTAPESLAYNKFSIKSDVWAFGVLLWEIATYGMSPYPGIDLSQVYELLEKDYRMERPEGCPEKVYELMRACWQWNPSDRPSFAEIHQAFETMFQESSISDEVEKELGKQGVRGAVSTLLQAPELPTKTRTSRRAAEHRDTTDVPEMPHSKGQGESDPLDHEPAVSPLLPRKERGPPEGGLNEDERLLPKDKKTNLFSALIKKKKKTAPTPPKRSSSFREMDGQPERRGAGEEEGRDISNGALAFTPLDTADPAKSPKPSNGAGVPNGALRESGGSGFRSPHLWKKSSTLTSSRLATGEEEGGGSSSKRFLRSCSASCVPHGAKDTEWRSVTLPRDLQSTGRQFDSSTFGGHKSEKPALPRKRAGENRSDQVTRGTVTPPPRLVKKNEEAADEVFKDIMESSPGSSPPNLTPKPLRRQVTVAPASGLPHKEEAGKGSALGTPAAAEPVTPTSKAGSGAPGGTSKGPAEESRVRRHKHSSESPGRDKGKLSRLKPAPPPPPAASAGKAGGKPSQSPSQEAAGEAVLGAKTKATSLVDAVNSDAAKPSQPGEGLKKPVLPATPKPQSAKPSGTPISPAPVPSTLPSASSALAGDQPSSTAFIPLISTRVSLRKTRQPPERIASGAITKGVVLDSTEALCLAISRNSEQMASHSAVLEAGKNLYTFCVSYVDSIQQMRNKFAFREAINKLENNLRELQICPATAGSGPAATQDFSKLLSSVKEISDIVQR
Chain of ULK3 (human) (Q6PHR2 whole entry, looked up): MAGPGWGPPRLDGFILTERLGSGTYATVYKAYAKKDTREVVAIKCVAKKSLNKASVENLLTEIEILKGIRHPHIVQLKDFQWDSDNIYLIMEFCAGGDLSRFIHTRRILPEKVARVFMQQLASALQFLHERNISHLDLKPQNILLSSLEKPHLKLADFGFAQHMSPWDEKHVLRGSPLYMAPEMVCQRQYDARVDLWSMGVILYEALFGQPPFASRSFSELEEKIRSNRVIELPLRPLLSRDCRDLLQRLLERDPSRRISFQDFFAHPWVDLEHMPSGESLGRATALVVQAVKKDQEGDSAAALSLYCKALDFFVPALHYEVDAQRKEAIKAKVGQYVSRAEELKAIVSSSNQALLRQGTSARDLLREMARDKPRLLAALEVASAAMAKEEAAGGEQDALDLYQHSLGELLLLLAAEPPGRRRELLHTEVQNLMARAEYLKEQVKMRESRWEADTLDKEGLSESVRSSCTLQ
Chain of MAPKAPK3 (human) (Q16644 whole entry, looked up): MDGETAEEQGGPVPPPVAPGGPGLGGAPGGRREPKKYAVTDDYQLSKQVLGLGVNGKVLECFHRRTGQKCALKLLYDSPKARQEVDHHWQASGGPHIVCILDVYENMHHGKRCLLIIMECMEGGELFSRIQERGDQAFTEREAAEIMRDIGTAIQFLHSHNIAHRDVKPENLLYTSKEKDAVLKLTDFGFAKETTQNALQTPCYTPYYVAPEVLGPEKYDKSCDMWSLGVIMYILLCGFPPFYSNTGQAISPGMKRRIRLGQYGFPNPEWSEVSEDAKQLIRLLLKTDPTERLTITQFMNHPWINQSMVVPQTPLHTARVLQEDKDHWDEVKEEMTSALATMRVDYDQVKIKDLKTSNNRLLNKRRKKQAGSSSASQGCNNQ
Chain of NTRK1 (human) (P04629 whole entry, looked up): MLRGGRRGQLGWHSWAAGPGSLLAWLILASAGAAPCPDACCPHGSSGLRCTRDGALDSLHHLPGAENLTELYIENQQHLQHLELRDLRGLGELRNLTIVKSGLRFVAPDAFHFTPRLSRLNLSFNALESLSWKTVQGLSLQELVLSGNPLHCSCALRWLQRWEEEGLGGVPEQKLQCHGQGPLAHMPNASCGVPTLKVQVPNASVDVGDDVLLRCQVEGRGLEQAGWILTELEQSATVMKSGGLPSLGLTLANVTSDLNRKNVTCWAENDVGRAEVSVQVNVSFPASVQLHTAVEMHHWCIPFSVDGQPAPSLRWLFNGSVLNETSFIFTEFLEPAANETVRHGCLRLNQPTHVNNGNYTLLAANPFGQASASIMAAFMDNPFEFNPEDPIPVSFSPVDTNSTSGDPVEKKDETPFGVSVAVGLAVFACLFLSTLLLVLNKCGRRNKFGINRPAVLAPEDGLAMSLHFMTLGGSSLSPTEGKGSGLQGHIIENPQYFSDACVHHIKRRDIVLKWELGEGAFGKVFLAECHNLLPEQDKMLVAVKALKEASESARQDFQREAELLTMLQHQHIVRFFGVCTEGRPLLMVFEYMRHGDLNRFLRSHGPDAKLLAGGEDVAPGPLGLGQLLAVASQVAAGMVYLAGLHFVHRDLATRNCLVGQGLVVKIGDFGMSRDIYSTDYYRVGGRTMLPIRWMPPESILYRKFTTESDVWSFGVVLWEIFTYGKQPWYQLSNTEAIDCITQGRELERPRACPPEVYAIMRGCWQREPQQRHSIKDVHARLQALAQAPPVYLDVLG
Chain of CDK2 CCNE1 (human) (P24864 whole entry, looked up, other chains not shown): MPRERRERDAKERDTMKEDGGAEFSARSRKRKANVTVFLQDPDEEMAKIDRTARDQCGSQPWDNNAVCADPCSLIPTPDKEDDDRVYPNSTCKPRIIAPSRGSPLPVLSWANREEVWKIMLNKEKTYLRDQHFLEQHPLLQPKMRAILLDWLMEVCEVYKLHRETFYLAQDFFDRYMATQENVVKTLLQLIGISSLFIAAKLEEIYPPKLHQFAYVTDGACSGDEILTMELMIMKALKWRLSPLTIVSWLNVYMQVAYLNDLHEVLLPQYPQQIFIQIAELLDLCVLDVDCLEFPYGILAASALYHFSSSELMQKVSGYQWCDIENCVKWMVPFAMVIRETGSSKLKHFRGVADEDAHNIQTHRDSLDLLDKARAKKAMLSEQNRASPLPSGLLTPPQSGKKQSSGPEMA
Chain of MAPK13 (human) (O15264 whole entry, looked up): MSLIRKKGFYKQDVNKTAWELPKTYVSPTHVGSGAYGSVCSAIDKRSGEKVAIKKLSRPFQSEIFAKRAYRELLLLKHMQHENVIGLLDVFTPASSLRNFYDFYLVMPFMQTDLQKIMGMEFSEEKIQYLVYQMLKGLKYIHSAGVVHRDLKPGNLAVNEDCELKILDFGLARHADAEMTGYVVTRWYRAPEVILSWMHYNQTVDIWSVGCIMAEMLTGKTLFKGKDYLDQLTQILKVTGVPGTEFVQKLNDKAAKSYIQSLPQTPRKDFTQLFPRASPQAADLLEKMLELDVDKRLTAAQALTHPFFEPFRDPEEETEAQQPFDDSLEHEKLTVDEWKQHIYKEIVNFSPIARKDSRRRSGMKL
Chain of SRPK3 (human) (Q9UPE1 whole entry, looked up): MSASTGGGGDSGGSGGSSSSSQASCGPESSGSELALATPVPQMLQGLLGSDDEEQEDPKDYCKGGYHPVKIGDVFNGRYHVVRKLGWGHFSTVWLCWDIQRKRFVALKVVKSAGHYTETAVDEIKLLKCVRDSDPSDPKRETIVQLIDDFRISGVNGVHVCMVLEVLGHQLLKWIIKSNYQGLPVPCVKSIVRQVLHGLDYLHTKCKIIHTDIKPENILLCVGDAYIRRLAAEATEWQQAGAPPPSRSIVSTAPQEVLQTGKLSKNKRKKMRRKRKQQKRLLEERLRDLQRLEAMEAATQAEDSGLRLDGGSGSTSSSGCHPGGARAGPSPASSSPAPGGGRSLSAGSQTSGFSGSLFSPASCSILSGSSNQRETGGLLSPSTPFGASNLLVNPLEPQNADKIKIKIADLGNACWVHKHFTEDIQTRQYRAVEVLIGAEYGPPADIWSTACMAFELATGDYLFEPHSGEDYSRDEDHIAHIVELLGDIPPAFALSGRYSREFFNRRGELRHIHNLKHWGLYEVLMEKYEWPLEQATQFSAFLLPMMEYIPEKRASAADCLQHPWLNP
Chain of MAPK10 (human) (P53779 whole entry, looked up): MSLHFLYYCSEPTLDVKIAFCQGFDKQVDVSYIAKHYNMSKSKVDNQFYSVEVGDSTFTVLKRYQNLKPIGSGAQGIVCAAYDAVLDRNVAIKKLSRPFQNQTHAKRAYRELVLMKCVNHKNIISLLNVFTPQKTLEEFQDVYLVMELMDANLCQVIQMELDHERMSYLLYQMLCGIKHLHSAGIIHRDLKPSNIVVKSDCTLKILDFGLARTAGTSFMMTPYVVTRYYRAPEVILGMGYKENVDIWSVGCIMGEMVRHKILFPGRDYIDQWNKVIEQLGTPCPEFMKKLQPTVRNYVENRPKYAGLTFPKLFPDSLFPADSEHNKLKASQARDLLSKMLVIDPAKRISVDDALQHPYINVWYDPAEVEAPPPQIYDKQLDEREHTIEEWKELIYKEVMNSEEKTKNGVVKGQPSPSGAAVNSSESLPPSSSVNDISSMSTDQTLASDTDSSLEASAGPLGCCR

## CCOC(=O)c1c(C)[nH]c(/C=C2\C(=O)Nc3ccccc32)c1C
TYRO3 (human)
  residual activity: 96.9%
MET (human)
  residual activity: 87.4%
RPS6KA4 KD2 (human)
  residual activity: 87%
ROCK1 (human)
  residual activity: 99.1%
ABL1 (human)
  residual activity: 95.4%
CLK1 (human)
  residual activity: 98.2%
CSNK1G2 (human)
  residual activity: 84.8%
RIPK2 (human)
  residual activity: 88.3%
TTK (human)
  residual activity: 96.6%
CDK2 CCNE1 (human)
  residual activity: 95.6%
CDK2 CCNA2 (human)
  residual activity: 94.5%
FYN (human)
  residual activity: 97.3%
PTK2 (human)
  residual activity: 93%
CAMK2B (human)
  residual activity: 96%
FES (human)
  residual activity: 99.3%
ROS1 (human)
  residual activity: 99.1%
STK39 (human)
  residual activity: 85.1%
MAPK10 (human)
  residual activity: 86.8%
EPHB3 (human)
  residual activity: 94.4%
TSSK1B (human)
  residual activity: 91.2%
ULK3 (human)
  residual activity: 76.7%
BLK (human)
  residual activity: 80.2%
IGF1R (human)
  residual activity: 79.5%
NEK2 (human)
  residual activity: 91.4%
MAPKAPK3 (human)
  residual activity: 91.7%
MINK1 (human)
  residual activity: 88.9%
TLK2 (human)
  residual activity: 96.5%
RPS6KA2 KD1 KD2 (human)
  residual activity: 71.4%
SRPK3 (human)
  residual activity: 88.8%
BRSK2 (human)
  residual activity: 98.7%
PRKCB2 (human)
  residual activity: 91.5%
MAPK9 (human)
  residual activity: 93.9%
TBK1 (human)
  residual activity: 70.5%
PRKACG (human)
  residual activity: 88.4%
LRRK2 (human)
  residual activity: 28.6%
MAPK13 (human)
  residual activity: 98.3%
DCLK2 (human)
  residual activity: 94.7%
STK38 (human)
  residual activity: 101%
AURKA (human)
  residual activity: 90.4%
STK10 (human)
  residual activity: 82.2%
NTRK1 (human)
  residual activity: 69.9%
DAPK3 (human)
  residual activity: 85.1%

## Nc1ncnc2[nH]nc(Nc3ccc(F)cc3)c12
TYRO3 (human)
  residual activity: 100%
MET (human)
  residual activity: 124%
RPS6KA4 KD2 (human)
  residual activity: 114%
ROCK1 (human)
  residual activity: 100%
ABL1 (human)
  residual activity: 88.1%
CLK1 (human)
  residual activity: 102%
CSNK1G2 (human)
  residual activity: 95.7%
RIPK2 (human)
  residual activity: 68.7%
TTK (human)
  residual activity: 96.1%
CDK2 CCNE1 (human)
  residual activity: 90.3%
CDK2 CCNA2 (human)
  residual activity: 88.7%
FYN (human)
  residual activity: 93%
PTK2 (human)
  residual activity: 103%
CAMK2B (human)
  residual activity: 97.7%
FES (human)
  residual activity: 100%
ROS1 (human)
  residual activity: 99.9%
STK39 (human)
  residual activity: 88.5%
MAPK10 (human)
  residual activity: 100%
EPHB3 (human)
  residual activity: 87.7%
TSSK1B (human)
  residual activity: 96.4%
ULK3 (human)
  residual activity: 92.8%
BLK (human)
  residual activity: 101%
IGF1R (human)
  residual activity: 104%
NEK2 (human)
  residual activity: 89.3%
MAPKAPK3 (human)
  residual activity: 94%
MINK1 (human)
  residual activity: 88.9%
TLK2 (human)
  residual activity: 79%
RPS6KA2 KD1 KD2 (human)
  residual activity: 70.6%
SRPK3 (human)
  residual activity: 91.5%
BRSK2 (human)
  residual activity: 60.6%
PRKCB2 (human)
  residual activity: 105%
MAPK9 (human)
  residual activity: 103%
TBK1 (human)
  residual activity: 99.6%
PRKACG (human)
  residual activity: 96.2%
LRRK2 (human)
  residual activity: 89.6%
MAPK13 (human)
  residual activity: 104%
DCLK2 (human)
  residual activity: 99.5%
STK38 (human)
  residual activity: 101%
AURKA (human)
  residual activity: 92.3%
STK10 (human)
  residual activity: 70.5%
NTRK1 (human)
  residual activity: 109%
DAPK3 (human)
  residual activity: 124%

## CCN(CC)CCNC(=O)c1c(C)[nH]c(/C=C2\C(=O)Nc3ccc(Cl)cc32)c1C
TYRO3 (human)
  residual activity: 23.2%
MET (human)
  residual activity: 77%
RPS6KA4 KD2 (human)
  residual activity: 59%
ROCK1 (human)
  residual activity: 89.7%
ABL1 (human)
  residual activity: 24.7%
CLK1 (human)
  residual activity: 34.2%
CSNK1G2 (human)
  residual activity: 45.2%
RIPK2 (human)
  residual activity: 84.1%
TTK (human)
  residual activity: 59.8%
CDK2 CCNE1 (human)
  residual activity: 90%
CDK2 CCNA2 (human)
  residual activity: 92.8%
FYN (human)
  residual activity: 28.4%
PTK2 (human)
  residual activity: 25.8%
CAMK2B (human)
  residual activity: 27.3%
FES (human)
  residual activity: 22.1%
ROS1 (human)
  residual activity: 43.9%
STK39 (human)
  residual activity: 81.9%
MAPK10 (human)
  residual activity: 104%
EPHB3 (human)
  residual activity: 100%
TSSK1B (human)
  residual activity: 8.45%
ULK3 (human)
  residual activity: 21.6%
BLK (human)
  residual activity: 15.8%
IGF1R (human)
  residual activity: 35.2%
NEK2 (human)
  residual activity: 77.2%
MAPKAPK3 (human)
  residual activity: 101%
MINK1 (human)
  residual activity: 4.4%
TLK2 (human)
  residual activity: 79.6%
RPS6KA2 KD1 KD2 (human)
  residual activity: 10%
SRPK3 (human)
  residual activity: 92.8%
BRSK2 (human)
  residual activity: 53.7%
PRKCB2 (human)
  residual activity: 110%
MAPK9 (human)
  residual activity: 109%
TBK1 (human)
  residual activity: 16.3%
PRKACG (human)
  residual activity: 101%
LRRK2 (human)
  residual activity: 1.44%
MAPK13 (human)
  residual activity: 104%
DCLK2 (human)
  residual activity: 82.8%
STK38 (human)
  residual activity: 95.8%
AURKA (human)
  residual activity: 80.3%
STK10 (human)
  residual activity: 7.11%
NTRK1 (human)
  residual activity: 8.73%
DAPK3 (human)
  residual activity: 54.3%

## O=C1NC(=O)C(c2cn(CCCn3ccnc3)c3ccccc23)=C1Nc1ccccc1
TYRO3 (human)
  residual activity: 99.6%
MET (human)
  residual activity: 100%
RPS6KA4 KD2 (human)
  residual activity: 44.4%
ROCK1 (human)
  residual activity: 99.2%
ABL1 (human)
  residual activity: 96.1%
CLK1 (human)
  residual activity: 43.3%
CSNK1G2 (human)
  residual activity: 95.4%
RIPK2 (human)
  residual activity: 84.3%
TTK (human)
  residual activity: 121%
CDK2 CCNE1 (human)
  residual activity: 81.8%
CDK2 CCNA2 (human)
  residual activity: 83.4%
FYN (human)
  residual activity: 102%
PTK2 (human)
  residual activity: 104%
CAMK2B (human)
  residual activity: 93.8%
FES (human)
  residual activity: 103%
ROS1 (human)
  residual activity: 78.7%
STK39 (human)
  residual activity: 99.2%
MAPK10 (human)
  residual activity: 100%
EPHB3 (human)
  residual activity: 99.7%
TSSK1B (human)
  residual activity: 102%
ULK3 (human)
  residual activity: 84.7%
BLK (human)
  residual activity: 90.9%
IGF1R (human)
  residual activity: 95.3%
NEK2 (human)
  residual activity: 106%
MAPKAPK3 (human)
  residual activity: 92.4%
MINK1 (human)
  residual activity: 90.1%
TLK2 (human)
  residual activity: 74.1%
RPS6KA2 KD1 KD2 (human)
  residual activity: 3.17%
SRPK3 (human)
  residual activity: 92.5%
BRSK2 (human)
  residual activity: 93.6%
PRKCB2 (human)
  residual activity: 4.29%
MAPK9 (human)
  residual activity: 101%
TBK1 (human)
  residual activity: 48%
PRKACG (human)
  residual activity: 117%
LRRK2 (human)
  residual activity: 43.6%
MAPK13 (human)
  residual activity: 122%
DCLK2 (human)
  residual activity: 96.3%
STK38 (human)
  residual activity: 99.1%
AURKA (human)
  residual activity: 78.8%
STK10 (human)
  residual activity: 11.5%
NTRK1 (human)
  residual activity: 104%
DAPK3 (human)
  residual activity: 104%
